Results taken from patent publication US12077503B2, “Substituted cyclic amides and their use as herbicides” (FMC CORPORATION, priority 2015, dated 2024).

Experiments:
Type in all cases: in vivo
[1] = system: barnyardgrass (Echinochloa crus-galli); assay: Test G Pre-Emergence Protocol; conditions: Echinochloa crus-galli, pre-emergence, 312 h, evaluated after 13 days; for pest or weed control at 15.625 g/ha: 15.625 g ai/ha, read-out: Barnyard grass damage rating (100=total damage to plant; 0=no damage to plant); for pest or weed control at 62.5 g/ha: 62.5 g ai/ha, 100=total damage to plant, 0=no damage to plant, read-out: plant damage rating, Barnyardgrass; for pest or weed control at 250 g/ha: 250 g ai/ha, read-out: Barnyardgrass damage rating (100=total damage to plant; 0=no damage to plant)
Method in brief: (§1)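 Glasshouse pre-emergence test: soil-sown seeds, sprayed after 1 d at 15.625, 62.5 or 250 g/ha. Conditions 24/16° C day/night, 14 h light, 65% humidity, watering twice daily. Rating 13 d post-spray (100 = total damage).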

[2] = system: corn (Zea mays); assay: Test G Pre-Emergence Protocol; conditions: Zea mays, pre-emergence, 312 h, evaluated after 13 days; for plant injury at 15.625 g/ha: 15.625 g ai/ha; for plant injury at 15.625 g/ha / plant injury at 250 g/ha: read-out: Corn damage rating (100=total damage to plant; 0=no damage to plant); for plant injury at 62.5 g/ha: 62.5 g ai/ha, 100=total damage to plant, 0=no damage to plant, read-out: plant damage rating, Corn; for plant injury at 250 g/ha: 250 g ai/ha
Method in brief: as §1

[3] = system: giant foxtail (Setaria faberi); assay: Test G Pre-Emergence Protocol; conditions: Setaria faberi, pre-emergence, 312 h, evaluated after 13 days; for pest or weed control at 15.625 g/ha: 15.625 g ai/ha; for pest or weed control at 15.625 g/ha / pest or weed control at 250 g/ha: read-out: Foxtail, Giant damage rating (100=total damage to plant; 0=no damage to plant); for pest or weed control at 62.5 g/ha: 62.5 g ai/ha, 100=total damage to plant, 0=no damage to plant, read-out: plant damage rating, Foxtail, Giant; for pest or weed control at 250 g/ha: 250 g ai/ha
Method in brief: as §1

[4] = system: ivy-leaved morning glory (Ipomoea hederacea); assay: Test G Pre-Emergence Protocol; conditions: Ipomoea, pre-emergence, 312 h, evaluated after 13 days; for pest or weed control at 15.625 g/ha: 15.625 g ai/ha, read-out: Morning-glory, Ivy-leaved damage rating (100=total damage to plant; 0=no damage to plant); for pest or weed control at 62.5 g/ha: 62.5 g ai/ha, 100=total damage to plant, 0=no damage to plant, read-out: plant damage rating, Morningglory, Ivy-leaved; for pest or weed control at 250 g/ha: 250 g ai/ha, read-out: Morningglory, Ivy-leaved damage rating (100=total damage to plant; 0=no damage to plant)
Method in brief: as §1

[5] = system: redroot pigweed (Amaranthus retroflexus); assay: Test G Pre-Emergence Protocol; conditions: Amaranthus retroflexus, pre-emergence, 312 h, evaluated after 13 days; for pest or weed control at 15.625 g/ha: 15.625 g ai/ha; for pest or weed control at 15.625 g/ha / pest or weed control at 250 g/ha: read-out: Pigweed, Redroot damage rating (100=total damage to plant; 0=no damage to plant); for pest or weed control at 62.5 g/ha: 62.5 g ai/ha, 100=total damage to plant, 0=no damage to plant, read-out: plant damage rating, Pigweed, Redroot; for pest or weed control at 250 g/ha: 250 g ai/ha
Method in brief: as §1

[6] = system: velvetleaf (Abutilon theophrasti); assay: Test G Pre-Emergence Protocol; conditions: Abutilon theophrasti, pre-emergence, 312 h, evaluated after 13 days; for pest or weed control at 15.625 g/ha: 15.625 g ai/ha; for pest or weed control at 15.625 g/ha / pest or weed control at 250 g/ha: read-out: Velvetleaf damage rating (100=total damage to plant; 0=no damage to plant); for pest or weed control at 62.5 g/ha: 62.5 g ai/ha, 100=total damage to plant, 0=no damage to plant, read-out: plant damage rating, Velvetleaf; for pest or weed control at 250 g/ha: 250 g ai/ha
Method in brief: as §1

[7] = system: barnyardgrass (Echinochloa crus-galli); assay: Test G Post-Emergence Protocol; conditions: Echinochloa crus-galli, post-emergence, 312 h; for pest or weed control at 15.625 g/ha: 15.625 g ai/ha, evaluated after 13 days (100=total damage to plant; 0=no damage to plant), read-out: Barnyardgrass damage rating; for pest or weed control at 62.5 g/ha: 62.5 g ai/ha, read-out: Barnyardgrass damage rating (100=total damage to plant; 0=no damage to plant); for pest or weed control at 62.5 g/ha / pest or weed control at 250 g/ha: evaluated after 13 days; for pest or weed control at 250 g/ha: 250 g ai/ha, read-out: damage to plant, Barnyardgrass (100=total damage to plant; 0=no damage to plant)
Method in brief: (§2)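 Pot-grown seedlings, 8 days old, raised in a glasshouse at 24/16 °C day/night with 14 h light and 65% humidity, were sprayed post-emergence with test compound in acetone/water (50:50) plus 0.5% Tween 20 at 15.625, 62.5 or 250 g/ha. Damage was scored visually 13 days later on a 0–100 scale (100 = total damage).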

[8] = system: corn (Zea mays); assay: Test G Post-Emergence Protocol; conditions: Zea mays, post-emergence, 312 h; for plant injury at 15.625 g/ha: 15.625 g ai/ha, evaluated after 13 days (100=total damage to plant; 0=no damage to plant), read-out: Corn damage rating; for plant injury at 62.5 g/ha: 62.5 g ai/ha, read-out: Corn damage rating (100=total damage to plant; 0=no damage to plant); for plant injury at 62.5 g/ha / plant injury at 250 g/ha: evaluated after 13 days; for plant injury at 250 g/ha: 250 g ai/ha, read-out: damage to plant, Corn (100=total damage to plant; 0=no damage to plant)
Method in brief: as §2

[9] = system: giant foxtail (Setaria faberi); assay: Test G Post-Emergence Protocol; conditions: Setaria faberi, post-emergence, 312 h; for pest or weed control at 15.625 g/ha: 15.625 g ai/ha, evaluated after 13 days (100=total damage to plant; 0=no damage to plant), read-out: Foxtail, Giant damage rating; for pest or weed control at 62.5 g/ha: 62.5 g ai/ha, read-out: Foxtail, Giant damage rating (100=total damage to plant; 0=no damage to plant); for pest or weed control at 62.5 g/ha / pest or weed control at 250 g/ha: evaluated after 13 days; for pest or weed control at 250 g/ha: 250 g ai/ha, read-out: damage to plant, Foxtail, Giant (100=total damage to plant; 0=no damage to plant)
Method in brief: as §2

[10] = system: ivy-leaved morning glory (Ipomoea hederacea); assay: Test G Post-Emergence Protocol; conditions: Ipomoea, post-emergence, 312 h; for pest or weed control at 15.625 g/ha: 15.625 g ai/ha, evaluated after 13 days (100=total damage to plant; 0=no damage to plant), read-out: Morningglory, Ivy-leaved damage rating; for pest or weed control at 62.5 g/ha: 62.5 g ai/ha, read-out: Morningglory, Ivy-leaved damage rating (100=total damage to plant; 0=no damage to plant); for pest or weed control at 62.5 g/ha / pest or weed control at 250 g/ha: evaluated after 13 days; for pest or weed control at 250 g/ha: 250 g ai/ha, read-out: damage to plant, Morningglory, Ivy-leaved (100=total damage to plant; 0=no damage to plant)
Method in brief: as §2

[11] = system: redroot pigweed (Amaranthus retroflexus); assay: Test G Post-Emergence Protocol; conditions: Amaranthus retroflexus, post-emergence, 312 h; for pest or weed control at 15.625 g/ha: 15.625 g ai/ha, evaluated after 13 days (100=total damage to plant; 0=no damage to plant), read-out: Pigweed, Redroot damage rating; for pest or weed control at 62.5 g/ha: 62.5 g ai/ha, read-out: Pigweed, Redroot damage rating (100=total damage to plant; 0=no damage to plant); for pest or weed control at 62.5 g/ha / pest or weed control at 250 g/ha: evaluated after 13 days; for pest or weed control at 250 g/ha: 250 g ai/ha, read-out: damage to plant, Pigweed, Redroot (100=total damage to plant; 0=no damage to plant)
Method in brief: as §2

[12] = system: velvetleaf (Abutilon theophrasti); assay: Test G Post-Emergence Protocol; conditions: Abutilon theophrasti, post-emergence, 312 h; for pest or weed control at 15.625 g/ha: 15.625 g ai/ha, evaluated after 13 days (100=total damage to plant; 0=no damage to plant), read-out: Velvetleaf damage rating; for pest or weed control at 62.5 g/ha: 62.5 g ai/ha, read-out: Velvetleaf damage rating (100=total damage to plant; 0=no damage to plant); for pest or weed control at 62.5 g/ha / pest or weed control at 250 g/ha: evaluated after 13 days; for pest or weed control at 250 g/ha: 250 g ai/ha, read-out: damage to plant, Velvetleaf (100=total damage to plant; 0=no damage to plant)
Method in brief: as §2

| SMILES | pest or weed control at 15.625 g/ha [1] [%] | pest or weed control at 62.5 g/ha [1] [%] | pest or weed control at 250 g/ha [1] [%] | plant injury at 15.625 g/ha [2] [%] | plant injury at 62.5 g/ha [2] [%] | plant injury at 250 g/ha [2] [%] | pest or weed control at 15.625 g/ha [3] [%] | pest or weed control at 62.5 g/ha [3] [%] | pest or weed control at 250 g/ha [3] [%] | pest or weed control at 15.625 g/ha [4] [%] | pest or weed control at 62.5 g/ha [4] [%] | pest or weed control at 250 g/ha [4] [%] | pest or weed control at 15.625 g/ha [5] [%] | pest or weed control at 62.5 g/ha [5] [%] | pest or weed control at 250 g/ha [5] [%] | pest or weed control at 15.625 g/ha [6] [%] | pest or weed control at 62.5 g/ha [6] [%] | pest or weed control at 250 g/ha [6] [%] | pest or weed control at 15.625 g/ha [7] [%] | pest or weed control at 62.5 g/ha [7] [%] | further results |
| --- | --- | --- | --- | --- | --- | --- | --- | --- | --- | --- | --- | --- | --- | --- | --- | --- | --- | --- | --- | --- | --- |
| Cc1nnc(NC(=O)[C@@H]2C(=O)N(C)C[C@H]2c2ccc(C(F)(F)F)cc2)s1 (racemic) [Compound 1559] | 0 | 0 | 0 | 0 | 0 | 0 | 0 | 0 | 0 | 0 | 0 | 0 | 0 | 0 | 0 | 0 | 0 | 0 | 0 | 0 | pest or weed control at 250 g/ha [7]: 0%; plant injury at 15.625 g/ha [8]: 0%; plant injury at 62.5 g/ha [8]: 0%; plant injury at 250 g/ha [8]: 0%; pest or weed control at 15.625 g/ha [9]: 0%; pest or weed control at 62.5 g/ha [9]: 0%; pest or weed control at 250 g/ha [9]: 0%; pest or weed control at 15.625 g/ha [10]: 0%; pest or weed control at 62.5 g/ha [10]: 0%; pest or weed control at 250 g/ha [10]: 0%; pest or weed control at 15.625 g/ha [11]: 0%; pest or weed control at 62.5 g/ha [11]: 0%; pest or weed control at 250 g/ha [11]: 0%; pest or weed control at 15.625 g/ha [12]: 0%; pest or weed control at 62.5 g/ha [12]: 0%; pest or weed control at 250 g/ha [12]: 0% |
| Cc1nnc(NC(=O)[C@@H]2C(=O)N(C)C[C@H]2c2ccc(C(F)(F)F)cc2)nc1C (racemic) [Compound 1549] | 0 | 0 | 0 | 0 | 0 | 0 | 0 | 0 | 0 | 0 | 0 | 0 | 0 | 0 | 0 | 0 | 0 | 0 | 0 | 0 | pest or weed control at 250 g/ha [7]: 0%; plant injury at 15.625 g/ha [8]: 0%; plant injury at 62.5 g/ha [8]: 0%; plant injury at 250 g/ha [8]: 0%; pest or weed control at 15.625 g/ha [9]: 0%; pest or weed control at 62.5 g/ha [9]: 0%; pest or weed control at 250 g/ha [9]: 0%; pest or weed control at 15.625 g/ha [10]: 0%; pest or weed control at 62.5 g/ha [10]: 0%; pest or weed control at 250 g/ha [10]: 0%; pest or weed control at 15.625 g/ha [11]: 0%; pest or weed control at 62.5 g/ha [11]: 0%; pest or weed control at 250 g/ha [11]: 0%; pest or weed control at 15.625 g/ha [12]: 0%; pest or weed control at 62.5 g/ha [12]: 0%; pest or weed control at 250 g/ha [12]: 0% |
| CN1C[C@@H](c2ccc(C(F)(F)F)cc2)[C@H](C(=O)Nc2ccccn2)C1=O (racemic) [Compound 1596] | 0 | 0 | 70 | 0 | 0 | 0 | 0 | 40 | 80 | 0 | 10 | 100 | 0 | 20 | 60 | 0 | 0 | 20 | 0 | 30 | pest or weed control at 250 g/ha [7]: 70%; plant injury at 15.625 g/ha [8]: 0%; plant injury at 62.5 g/ha [8]: 0%; plant injury at 250 g/ha [8]: 10%; pest or weed control at 15.625 g/ha [9]: 0%; pest or weed control at 62.5 g/ha [9]: 60%; pest or weed control at 250 g/ha [9]: 80%; pest or weed control at 15.625 g/ha [10]: 0%; pest or weed control at 62.5 g/ha [10]: 10%; pest or weed control at 250 g/ha [10]: 20%; pest or weed control at 15.625 g/ha [11]: 0%; pest or weed control at 62.5 g/ha [11]: 10%; pest or weed control at 250 g/ha [11]: 40%; pest or weed control at 15.625 g/ha [12]: 0%; pest or weed control at 62.5 g/ha [12]: 0%; pest or weed control at 250 g/ha [12]: 10% |
